In patent publication US20260274814A1, “THIENYL COMPOUNDS FOR THE TREATMENT OF A CENTRAL NERVOUS SYSTEM DISEASE OR DISORDER” (Coreterra Therapeutics, Inc., priority 2023, published 2026):
Where a name gives a salt, the structure may show the parent alone.

System: mice
Assay: Neuropharmacological Assay (SmartCube): automated behavioral signature of compound-treated mice compared with a database of reference drug classes
Type: in vivo
Settings: for minimal effective dose: Mus musculus, ip, read-out: MED; for minimal effective dose / MED: minimal effective dose: dose having 45% or more total activity in SmartCube, i.p., if only one dose tested, that dose is shown; for AG / AN / AP / AX / CE / HL / MS / PS / SH / UK / AD: SmartCube class probability, 3.0 mg/kg i.p., 15 min before test
In short: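 Compounds in N-methyl-2-pyrrolidone/polyethylene glycol/propylene glycol were given i.p. 15 min before testing, at 3 doses; values shown are for 3.0 mg/kg. Video-captured behaviour was matched by algorithm against reference drug classes, giving a probability per class. MED: lowest dose reaching ≥45% total activity.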

NC1CCc2c(C(F)(F)F)csc2C1 (single isomer, unassigned) [Compound 243, 3-(trifluoromethyl)-4,5,6,7-tetrahydrobenzothiophen-6-amine hydrochloride] was tested, and the minimal effective dose was 3 mg/kg, the AG was “ND (^ <4%)” and the AN was “ND (^ <4%)”. For the same molecule, the AP was “ND (^ <4%)”, the AX was “ND (^ <4%)” and the CE was “ND (^ <4%)”. The HL was “ND (^ <4%)”, the MS was “ND (^ <4%)” and the PS was “ND (^ <4%)”. The SH was “ND (^ <4%)”, the UK was “ND (^ <4%)” and the AD (hydrochloride, 3 mg/kg) was “++ (≥24%)”.

NC1CCc2c(C(F)(F)F)csc2C1 (single isomer, unassigned) [Compound 244, 3-(trifluoromethyl)-4,5,6,7-tetrahydrobenzothiophen-6-amine hydrochloride] was tested, and the AG was “ND (^ <4%)”, the AN was “ND (^ <4%)” and the AP was “ND (^ <4%)”. For the same molecule, the AX was “ND (^ <4%)”, the CE was “ND (^ <4%)” and the HL was “ND (^ <4%)”. For the same molecule, the MS was “ND (^ <4%)”, the PS was “ND (^ <4%)” and the SH was “ND (^ <4%)”. The UK was “ND (^ <4%)”, the AD (hydrochloride, 3 mg/kg) was “++++ (≥74%)” and the MED (hydrochloride) was under 3 mpk.

For CNC1(C)CCc2cc(C(F)(F)F)sc2C1.Cl (single isomer, unassigned) [Compound 245, N, 6-dimethyl-2-(trifluoromethyl)-5,7-dihydro-4H-benzothiophen-6-amine hydrochloride], the minimal effective dose was 3 mg/kg, the AG was “ND (^ <4%)” and the AN was “ND (^ <4%)”. The AX was “ND (^ <4%)”, the CE was “ND (^ <4%)” and the HL was “ND (^ <4%)”. For the same molecule, the MS was “ND (^ <4%)”, the PS was “ND (^ <4%)” and the SH was “ND (^ <4%)”. The AD (hydrochloride, 3 mg/kg) was “++ (≥24%)”, the AP (hydrochloride, 3 mg/kg) was “ND (^ <4%)” and the UK (hydrochloride, 3 mg/kg) was “+ (≥4%)”.

With CNC1(C)CCc2cc(C(F)(F)F)sc2C1.Cl (single isomer, unassigned) [Compound 246, N, 6-dimethyl-2-(trifluoromethyl)-5,7-dihydro-4H-benzothiophen-6-amine hydrochloride] the AG was “ND (^ <4%)”, the AN was “ND (^ <4%)” and the AX was “ND (^ <4%)”. For the same molecule, the CE was “ND (^ <4%)”, the HL was “ND (^ <4%)” and the MS was “ND (^ <4%)”. The PS was “ND (^ <4%)”, the SH was “ND (^ <4%)” and the AD (hydrochloride, 3 mg/kg) was “+ (≥4%)”. The AP (hydrochloride, 3 mg/kg) was “++ (≥24%)”, the UK (hydrochloride, 3 mg/kg) was “++ (≥24%)” and the MED was 3 mpk.

With CNC1CCc2scc(C3CC3)c2C1 (single isomer, unassigned) [Compound 249, 3-cyclopropyl-N-methyl-4,5,6,7-tetrahydrobenzothiophen-5-amine hydrochloride] the minimal effective dose was 3 mg/kg, the AD was “ND (^ <4%)” and the AG was “ND (^ <4%)”. For the same molecule, the AN was “ND (^ <4%)”, the CE was “ND (^ <4%)” and the HL was “ND (^ <4%)”. For the same molecule, the MS was “ND (^ <4%)”, the PS was “ND (^ <4%)” and the SH was “ND (^ <4%)”. The AP (hydrochloride, 3 mg/kg) was “ND (^ <4%)”, the AX (hydrochloride, 3 mg/kg) was “ND (^ <4%)” and the UK (hydrochloride, 3 mg/kg) was “++ (≥24%)”.

In the case of CNC1CCc2scc(C3CC3)c2C1 (single isomer, unassigned) [Compound 250, 3-cyclopropyl-N-methyl-4,5,6,7-tetrahydrobenzothiophen-5-amine hydrochloride], the AD was “ND (^ <4%)”, the AG was “ND (^ <4%)” and the AN was “ND (^ <4%)”. For the same molecule, the CE was “ND (^ <4%)”, the HL was “ND (^ <4%)” and the MS was “ND (^ <4%)”. The PS was “ND (^ <4%)”, the SH was “ND (^ <4%)” and the AP (hydrochloride, 3 mg/kg) was “+ (≥4%)”. For the same molecule, the AX (hydrochloride, 3 mg/kg) was “++++ (≥74%)”, the UK (hydrochloride, 3 mg/kg) was “ND (^ <4%)” and the MED was 3 mpk.

In the case of CCc1csc2c1CC(NC)CC2 (single isomer, unassigned) [Compound 251, 3-ethyl-N-methyl-4,5,6,7-tetrahydrobenzothiophen-5-amine hydrochloride], the minimal effective dose was over 3 mg/kg, the AD was “ND (^ <4%)” and the AG was “ND (^ <4%)”. The AN was “ND (^ <4%)”, the AX was “ND (^ <4%)” and the HL was “ND (^ <4%)”. The MS was “ND (^ <4%)”, the SH was “ND (^ <4%)” and the AP (hydrochloride, 3 mg/kg) was “ND (^ <4%)”. The UK (hydrochloride, 3 mg/kg) was “++ (≥24%)”.

CCc1csc2c1CC(NC)CC2 (single isomer, unassigned) [Compound 252, 3-ethyl-N-methyl-4,5,6,7-tetrahydrobenzothiophen-5-amine hydrochloride] was tested, and the AD was “ND (^ <4%)”, the AG was “ND (^ <4%)” and the AN was “ND (^ <4%)”. The AX was “ND (^ <4%)”, the HL was “ND (^ <4%)” and the MS was “ND (^ <4%)”. The SH was “ND (^ <4%)”, the AP (hydrochloride, 3 mg/kg) was “+ (≥4%)” and the CE (hydrochloride, 3 mg/kg) was “ND (^ <4%)”. The PS (hydrochloride, 3 mg/kg) was “ND (^ <4%)”, the UK (hydrochloride, 3 mg/kg) was “+++ (≥49%)” and the MED (hydrochloride) was 3 mpk.

With NC1CCc2scc(C(F)(F)F)c2C1 (single isomer, unassigned) [Compound 254, 3-(trifluoromethyl)-4,5,6,7-tetrahydrobenzothiophen-5-amine hydrochloride] the minimal effective dose was over 3 mg/kg, the AD was “ND (^ <4%)” and the AG was “ND (^ <4%)”. The AN was “ND (^ <4%)”, the AP was “ND (^ <4%)” and the AX was “ND (^ <4%)”. For the same molecule, the CE was “ND (^ <4%)”, the HL was “ND (^ <4%)” and the MS was “ND (^ <4%)”. For the same molecule, the PS was “ND (^ <4%)”, the SH was “ND (^ <4%)” and the UK (hydrochloride, 3 mg/kg) was “+ (≥4%)”.

For NC1CCc2scc(C(F)(F)F)c2C1 (single isomer, unassigned) [Compound 255, 3-(trifluoromethyl)-4,5,6,7-tetrahydrobenzothiophen-5-amine hydrochloride], the AD was “ND (^ <4%)”, the AG was “ND (^ <4%)” and the AN was “ND (^ <4%)”. For the same molecule, the AP was “ND (^ <4%)”, the AX was “ND (^ <4%)” and the CE was “ND (^ <4%)”. For the same molecule, the HL was “ND (^ <4%)”, the MS was “ND (^ <4%)” and the PS was “ND (^ <4%)”. The SH was “ND (^ <4%)”, the UK (hydrochloride, 3 mg/kg) was “ND (^ <4%)” and the MED was over 3 mpk.

With CNC1CCc2sc(-c3ccccc3)cc2C1.Cl (single isomer, unassigned) [Compound 256, N-methyl-2-phenyl-4,5,6,7-tetrahydrobenzothiophen-5-amine hydrochloride] the minimal effective dose was over 3 mg/kg, the AD was “ND (^ <4%)” and the AG was “ND (^ <4%)”. For the same molecule, the AN was “ND (^ <4%)”, the AP was “ND (^ <4%)” and the AX was “ND (^ <4%)”. For the same molecule, the CE was “ND (^ <4%)”, the HL was “ND (^ <4%)” and the MS was “ND (^ <4%)”. For the same molecule, the PS was “ND (^ <4%)”, the SH was “ND (^ <4%)” and the UK (hydrochloride, 3 mg/kg) was “+ (≥4%)”.

CNC1CCc2sc(-c3ccccc3)cc2C1.Cl (single isomer, unassigned) [Compound 257, N-methyl-2-phenyl-4,5,6,7-tetrahydrobenzothiophen-5-amine hydrochloride] was tested, and the AD was “ND (^ <4%)”, the AG was “ND (^ <4%)” and the AN was “ND (^ <4%)”. For the same molecule, the AP was “ND (^ <4%)”, the AX was “ND (^ <4%)” and the CE was “ND (^ <4%)”. For the same molecule, the HL was “ND (^ <4%)”, the MS was “ND (^ <4%)” and the PS was “ND (^ <4%)”. The SH was “ND (^ <4%)”, the UK (hydrochloride, 3 mg/kg) was “++ (≥24%)” and the MED was over 3 mpk.

CNC1COc2csc(C(F)(F)F)c2C1 (single isomer, unassigned) [Compound 258, N-methyl-5-(trifluoromethyl)-3,4-dihydro-2H-thieno[3,4-b]pyran-3-amine hydrochloride] was tested, and the minimal effective dose was over 3 mg/kg, the AD was “ND (^ <4%)” and the AG was “ND (^ <4%)”. The AN was “ND (^ <4%)”, the AP was “ND (^ <4%)” and the AX was “ND (^ <4%)”. The CE was “ND (^ <4%)”, the HL was “ND (^ <4%)” and the MS was “ND (^ <4%)”. The PS was “ND (^ <4%)”, the SH was “ND (^ <4%)” and the UK (hydrochloride, 3 mg/kg) was “+ (≥4%)”.

For CNC1COc2csc(C(F)(F)F)c2C1 (single isomer, unassigned) [Compound 259, N-methyl-5-(trifluoromethyl)-3,4-dihydro-2H-thieno[3,4-b]pyran-3-amine hydrochloride], the AD was “ND (^ <4%)”, the AG was “ND (^ <4%)” and the AN was “ND (^ <4%)”. For the same molecule, the AP was “ND (^ <4%)”, the AX was “ND (^ <4%)” and the CE was “ND (^ <4%)”. The HL was “ND (^ <4%)”, the MS was “ND (^ <4%)” and the PS was “ND (^ <4%)”. The SH was “ND (^ <4%)”, the UK (hydrochloride, 3 mg/kg) was “++ (≥24%)” and the MED was over 3 mpk.

In the case of CNC1(C)CCc2c(C(F)(F)F)csc2C1.Cl (single isomer, unassigned) [Compound 261, N, 6-dimethyl-3-(trifluoromethyl)-5,7-dihydro-4H-benzothiophen-6-amine hydrochloride], the minimal effective dose was 3 mg/kg, the AG was “ND (^ <4%)” and the AN was “ND (^ <4%)”. The AP was “ND (^ <4%)”, the AX was “ND (^ <4%)” and the CE was “ND (^ <4%)”. For the same molecule, the HL was “ND (^ <4%)”, the MS was “ND (^ <4%)” and the PS was “ND (^ <4%)”. For the same molecule, the SH was “ND (^ <4%)”, the AD (hydrochloride, 3 mg/kg) was “+++ (≥49%)” and the UK (hydrochloride, 3 mg/kg) was “+ (≥4%)”.

With CNC1(C)CCc2c(C(F)(F)F)csc2C1.Cl (single isomer, unassigned) [Compound 262, N, 6-dimethyl-3-(trifluoromethyl)-5,7-dihydro-4H-benzothiophen-6-amine hydrochloride] the AG was “ND (^ <4%)”, the AN was “ND (^ <4%)” and the AP was “ND (^ <4%)”. For the same molecule, the AX was “ND (^ <4%)”, the CE was “ND (^ <4%)” and the HL was “ND (^ <4%)”. The MS was “ND (^ <4%)”, the PS was “ND (^ <4%)” and the SH was “ND (^ <4%)”. For the same molecule, the AD (hydrochloride, 3 mg/kg) was “++ (≥24%)”, the UK (hydrochloride, 3 mg/kg) was “ND (^ <4%)” and the MED (hydrochloride) was over 3 mpk.
